Assay results reported in ChEMBL document CHEMBL1201862, “PubChem BioAssay data set” (2004).
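Values below derive from 48-hour exposures of cells grown in 96-well plates, with endpoints linearly interpolated between the two concentrations bracketing the appropriate inhibition level. The concentration for 50% growth inhibition is given as GI50.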 Active and inactive are the calls of the source. Rule as the data show it: active = GI50 up to about 1.1 µM and inactive = higher.

Key:
Experiment in all cases: NCI tumour cell line growth inhibition, 48 h
SNB-78 = tested on: SNB-78
KM12 = tested on: KM12
NCI-H522 = tested on: NCI-H522
ACHN = tested on: ACHN
786-0 = tested on: 786-0
SK-OV-3 = tested on: SK-OV-3
SNB-19 = tested on: SNB-19
EKVX = tested on: EKVX
RXF 393 = tested on: RXF 393
HCT-116 = tested on: HCT-116
HOP-92 = tested on: HOP-92
OVCAR-4 = tested on: OVCAR-4
COLO 205 = tested on: COLO 205
SN12C = tested on: SN12C
CAKI-1 = tested on: CAKI-1
OVCAR-3 = tested on: OVCAR-3
SNB-75 = tested on: SNB-75
HT-29 = tested on: HT-29
SK-MEL-5 = tested on: SK-MEL-5

Measured: GI50

CCCCNC(=O)C1C(=O)N(CCCC)C(=O)/C1=N\N (stereo not drawn)
inactive: SNB-78 > 100 µM | KM12 > 100 µM | NCI-H522 > 100 µM | ACHN > 100 µM | 786-0 > 100 µM | SK-OV-3 > 100 µM | SNB-19 > 100 µM | EKVX > 100 µM | RXF 393 > 100 µM | HCT-116 > 100 µM | HOP-92 > 100 µM | OVCAR-4 > 100 µM | COLO 205 > 100 µM | SN12C > 100 µM | CAKI-1 > 100 µM | OVCAR-3 > 100 µM | SNB-75 > 100 µM | HT-29 > 100 µM | SK-MEL-5 > 100 µM

CC12CCCCC1(C)C2Sc1ccccc1 (stereo not drawn)
inactive: SNB-78 > 44.3 µM | KM12 49.3 µM | NCI-H522 28.9 µM | ACHN 46.2 µM | 786-0 44.8 µM | SK-OV-3 > 100 µM | SNB-19 38.5 µM | EKVX > 57.3 µM | RXF 393 23.9 µM | HCT-116 38.1 µM | HOP-92 26.7 µM | OVCAR-4 > 73.3 µM | COLO 205 > 65.3 µM | SN12C 64.3 µM | CAKI-1 > 56.1 µM | OVCAR-3 27.9 µM | SNB-75 70.8 µM | HT-29 37.2 µM | SK-MEL-5 31 µM

COc1ccc(NC(=O)C(=O)C2CNC(=O)NC2=O)c(OC)c1 (stereo not drawn)
inactive: SNB-78 > 100 µM | KM12 > 100 µM | NCI-H522 > 100 µM | ACHN > 100 µM | 786-0 > 100 µM | SK-OV-3 > 100 µM | SNB-19 > 100 µM | EKVX > 100 µM | RXF 393 > 100 µM | HCT-116 > 100 µM | HOP-92 > 100 µM | OVCAR-4 > 100 µM | COLO 205 > 100 µM | SN12C > 100 µM | CAKI-1 > 100 µM | OVCAR-3 > 100 µM | SNB-75 > 100 µM | HT-29 > 100 µM | SK-MEL-5 > 100 µM

C[C@H](OCc1ccccc1)C(=O)N1CCS(=O)(=O)N2CCC[C@@H]2C1=O
inactive: SNB-78 > 100 µM | KM12 > 100 µM | NCI-H522 > 100 µM | ACHN > 100 µM | 786-0 > 100 µM | SK-OV-3 > 100 µM | SNB-19 > 100 µM | EKVX > 100 µM | RXF 393 > 100 µM | HCT-116 > 100 µM | HOP-92 > 100 µM | OVCAR-4 > 100 µM | COLO 205 > 100 µM | SN12C > 100 µM | CAKI-1 > 100 µM | OVCAR-3 > 100 µM | SNB-75 > 100 µM | HT-29 > 100 µM | SK-MEL-5 > 100 µM

CCN(CC)CCNC(=O)c1ccc([N+](=O)[O-])cc1OC
inactive: SNB-78 > 100 µM | KM12 > 100 µM | NCI-H522 > 100 µM | ACHN > 100 µM | 786-0 > 100 µM | SK-OV-3 > 100 µM | SNB-19 > 100 µM | EKVX > 100 µM | RXF 393 > 100 µM | HCT-116 > 100 µM | HOP-92 > 100 µM | OVCAR-4 > 100 µM | COLO 205 > 100 µM | SN12C > 100 µM | CAKI-1 > 100 µM | OVCAR-3 > 100 µM | SNB-75 > 100 µM | HT-29 > 100 µM | SK-MEL-5 > 100 µM

CC1=C(C(=O)Nc2c(C)cccc2C)C(c2ccccc2Cl)C(C(=O)Nc2c(C)cccc2C)=C(C)N1
inactive: SNB-78 > 100 µM | KM12 > 100 µM | NCI-H522 > 100 µM | ACHN > 100 µM | 786-0 > 100 µM | SK-OV-3 > 100 µM | SNB-19 > 100 µM | EKVX > 100 µM | RXF 393 > 100 µM | HOP-92 > 100 µM | OVCAR-4 > 100 µM | COLO 205 > 100 µM | SN12C > 100 µM | CAKI-1 > 100 µM | OVCAR-3 > 100 µM | SNB-75 94.8 µM | HT-29 > 100 µM | SK-MEL-5 > 100 µM
